Assay results taken from patent US4224442A, “7-Ureido acetamido substituted cephalosporin antibiotics” (Eli Lilly and Company, priority 1975, dated 1980).
In brackets after ≈: the same amount, converted by molar mass.

Tests used:
[1] = test system: V41; experiment: Gradient Plate in vitro method, MIC; format: cell-based, penicillin resistant Staphyloccus; conditions: V41, penicillin resistant Staphylococcus, read-out: Minimum Inhibitory Concentration
Excerpt: (§1) The antibiotic activity of the cephalosporin compounds of the formula I is illustrated by the data presented in Table I for representative compounds. The values in the table are the minimum inhibitory concentrations (MIC) for the test compounds against the indicated microorganisms. The MIC values were obtained in the Gradient Plate in vitro method for determining antibiotic activity.
(§2) Minimum Inhibitory Concentration (mcg./ml.)
(§3) ^1 Test organisms V41, V32 and V84 are penicillin resistant
(§4) Staphyloccus, X400 is a methicillin resistant Staphylococcus.

[2] = test system: V84; experiment: Gradient Plate in vitro method, MIC; format: cell-based, penicillin resistant Staphyloccus; conditions: V84, penicillin resistant Staphylococcus, read-out: Minimum Inhibitory Concentration
Excerpt: as §1, §2, §3, §4

[3] = test system: V32; experiment: Gradient Plate in vitro method, MIC; format: cell-based, penicillin resistant Staphyloccus; conditions: V32, penicillin resistant Staphylococcus, read-out: Minimum Inhibitory Concentration
Excerpt: as §1, §2, §3, §4

[4] = test system: Klebsiella pneumoniae; experiment: Gradient Plate in vitro method, MIC; format: cell-based; conditions: read-out: Minimum Inhibitory Concentration
Excerpt: as §1, §2

[5] = test system: Shigella sp.; experiment: Gradient Plate in vitro method, MIC; format: cell-based; conditions: read-out: Minimum Inhibitory Concentration
Excerpt: as §1, §2

[6] = test system: Pseudomonas aeruginosa; experiment: Gradient Plate in vitro method, MIC; format: cell-based; conditions: read-out: Minimum Inhibitory Concentration
Excerpt: as §1, §2

[7] = test system: Salmonella heidelberg; experiment: Gradient Plate in vitro method, MIC; format: cell-based; conditions: Salmonella enterica, read-out: Minimum Inhibitory Concentration
Excerpt: as §1, §2

[8] = test system: Aerobacter aerogenes; experiment: Gradient Plate in vitro method, MIC; format: cell-based; conditions: Klebsiella aerogenes, read-out: Minimum Inhibitory Concentration
Excerpt: as §1, §2

[9] = test system: Serratia marcescens; experiment: Gradient Plate in vitro method, MIC; format: cell-based; conditions: read-out: Minimum Inhibitory Concentration
Excerpt: (§5) The values in the table are the minimum inhibitory concentrations (MIC) for the test compounds against the indicated microorganisms. The MIC values were obtained in the Gradient Plate in vitro method for determining antibiotic activity.

[10] = test system: Escherichia coli; experiment: Gradient Plate in vitro method, MIC; format: cell-based; conditions: read-out: Minimum Inhibitory Concentration
Excerpt: as §5

[11] = test system: X400; experiment: Gradient Plate in vitro method, MIC; format: cell-based; conditions: X400, methicillin resistant Staphylococcus, read-out: Minimum Inhibitory Concentration
Excerpt: as §1, §2, §3, §4

[12] = test system: Streptococcus pyogenes; experiment: in vivo effective dose in experimental infections in mice; conditions: ip, S. pyogenes infection in mice
Excerpt: (§6) The in vivo effective dose […] in mg./kg. for representative antibiotics of the formula I has been determined in experimental infections in mice. Table II lists the ED50 dose vs. Streptococcus pyogenes and Escherichia coli infections. In the table, the antibiotics are identified with the R", R', and R1 -R3 terms of Formula I. |Test Compound ED50 (mg/kg × 2) i.p.

[13] = test system: Escherichia coli; experiment: as above; conditions: ip, E. coli infection in mice
Excerpt: as §6

[14] = test system: Staphylococcus aureus; experiment: standard gear agar dilution method, MIC; format: cell-based
Excerpt: In the standard gear agar dilution method, the MIC values for the above test compounds A through E against Staphylococcus aureus were as follows: A, 2; B, 1; C, 0.5; D, 2; and E, 0.5 mcg./m1.

Structure (SMILES)	MIC [1] [µg/mL]	MIC [2] [µg/mL]	MIC [3] [µg/mL]	MIC [4] [µg/mL]	MIC [5] [µg/mL]	MIC [6] [µg/mL]	MIC [7] [µg/mL]	MIC [8] [µg/mL]	MIC [9] [µg/mL]	MIC [10] [µg/mL]	MIC [11] [µg/mL]	ED50 [12] [mg/kg]	ED50 [13] [mg/kg]	MIC [14] [µg/mL]
CNC(=O)N(C)C(=O)NC(C(=O)NC1C(=O)N2C(C(=O)O)=C(CSc3nnnn3C)CSC12)c1ccccc1 (stereo not drawn) [Test Compound F, 7-[α-(3-methylcarbamoyl-3-methyl-1-ureido)-α-phenylacetamido]-3-(1-methyl-1H-tetrazole-5-ylthiomethyl)-3-cephem-4-carboxylic acid]	5 (≈ 8.69 µM)	4 (≈ 6.95 µM)	5 (≈ 8.69 µM)	1 (≈ 1.74 µM)	3 (≈ 5.21 µM)	22 (≈ 38.2 µM)	3 (≈ 5.21 µM)	3 (≈ 5.21 µM)	22 (≈ 38.2 µM)	4 (≈ 6.95 µM)	> 20			
CNC(=O)NC(=O)NC(C(=O)NC1C(=O)N2C(C(=O)O)=C(CSc3nnc(C)s3)CSC12)c1ccc(O)cc1 (stereo not drawn) [Example 14, 7-[α-(3-methylcarbamoyl-1-ureido)-α-(4-hydroxyphenyl)acetamido]-3-(5-methyl-1,3,4-thiadiazole-2-ylthiomethyl)-3-cephem-4-carboxylic acid]												0.7	< 72	
Cn1nnnc1SCC1=C(C(=O)O)N2C(=O)C(NC(=O)C(NC(=O)NC(=O)Nc3ccccc3)c3ccccc3)C2SC1 (stereo not drawn) [Test Compound M, 7-[α-(3-phenylcarbamoyl-1-ureido)-α-phenylacetamido]-3-(1-methyl-1H-tetrazole-5-ylthiomethyl)-3-cephem-4-carboxylic acid]	0.6 (≈ 0.962 µM)	0.5 (≈ 0.802 µM)	0.5 (≈ 0.802 µM)	0.6 (≈ 0.962 µM)	4 (≈ 6.41 µM)	19.5 (≈ 31.3 µM)	7.8 (≈ 12.5 µM)	15.5 (≈ 24.9 µM)	24 (≈ 38.5 µM)	10 (≈ 16 µM)	10 (≈ 16 µM)			
CNC(=O)N(C)C(=O)NC(C(=O)NC1C(=O)N2C(C(=O)O)=C(CSc3nnnn3C)CSC12)c1cccs1 (stereo not drawn) [Test Compound K, 7-[α-(3-methylcarbamoyl-3-methyl-1-ureido)-α-(2-thienyl)acetamido]-3-(1-methyl-1H-tetrazole-5-ylthiomethyl)-3-cephem-4-carboxylic acid]	3 (≈ 5.16 µM)	3 (≈ 5.16 µM)	3 (≈ 5.16 µM)	0.9 (≈ 1.55 µM)	1 (≈ 1.72 µM)	21.5 (≈ 37 µM)	10 (≈ 17.2 µM)	1 (≈ 1.72 µM)	19.5 (≈ 33.5 µM)	2.5 (≈ 4.3 µM)	> 20			
Cn1nnnc1SCC1=C(C(=O)O)N2C(=O)C(NC(=O)C(NC(=O)N3CCNC3=O)c3ccccc3)[C@H]2SC1 (stereo partly drawn) [Test Compound D, 7-[α-(imidazolidine-2-one-1-ylcarbonylamino)-α-phenylacetamido]-3-(1-methyl-1H-tetrazole-5-ylthiomethyl)-3-cephem-4-carboxylic acid]	6 (≈ 10.5 µM)	0.9 (≈ 1.57 µM)	7 (≈ 12.2 µM)	7 (≈ 12.2 µM)	7 (≈ 12.2 µM)	90 (≈ 157 µM)	6 (≈ 10.5 µM)	12 (≈ 20.9 µM)	70 (≈ 122 µM)	12 (≈ 20.9 µM)	> 20			2 (≈ 3.49 µM)
CNC(=O)NC(=O)NC(C(=O)NC1C(=O)N2C(C(=O)O)=C(CSc3nnnn3C)CSC12)c1cccs1 (stereo not drawn) [Test Compound I, 7-[α-(3-methylcarbamoyl-1-ureido)-α-(2-thienyl)-acetamido]-3-(1-methyl-1H-tetrazole-5-ylthiomethyl)-3-cephem-4-carboxylic acid]	0.6 (≈ 1.06 µM)	0.6 (≈ 1.06 µM)	0.7 (≈ 1.23 µM)	6.8 (≈ 12 µM)	3 (≈ 5.29 µM)	16 (≈ 28.2 µM)	4.5 (≈ 7.93 µM)	4.3 (≈ 7.58 µM)	35 (≈ 61.7 µM)	5.5 (≈ 9.69 µM)	13 (≈ 22.9 µM)	< 7.2	< 72	
CC(=O)OCC1=C(C(=O)O)N2C(=O)C(NC(=O)C(NC(=O)N3CCNC3=O)c3ccccc3)[C@H]2SC1 (stereo partly drawn) [Test Compound E, 7-[α-(imidazolidine-2-one-1-ylcarbonylamino)-α-phenylacetamido]-3-acetoxymethyl-3-cephem-4-carboxylic acid]	2 (≈ 3.86 µM)	0.4 (≈ 0.773 µM)	5 (≈ 9.66 µM)	12 (≈ 23.2 µM)	10 (≈ 19.3 µM)	24 (≈ 46.4 µM)	11 (≈ 21.3 µM)	10 (≈ 19.3 µM)	42 (≈ 81.2 µM)	18 (≈ 34.8 µM)	> 20			0.5 (≈ 0.966 µM)
Cn1nnnc1SCC1=C(C(=O)O)N2C(=O)C(NC(=O)C(NC(=O)NC(N)=O)c3ccccc3)C2SC1 (stereo not drawn) [Test Compound H]	2.5 (≈ 4.57 µM)	1 (≈ 1.83 µM)	4 (≈ 7.3 µM)	35 (≈ 63.9 µM)	9.5 (≈ 17.3 µM)	60 (≈ 110 µM)	12 (≈ 21.9 µM)	15 (≈ 27.4 µM)	> 200	16 (≈ 29.2 µM)	> 20	0.7	< 72	
CNC(=O)NC(=O)NC(C(=O)NC1C(=O)N2C(C(=O)O)=C(CSc3nnnn3C)CSC12)c1ccccc1 (stereo not drawn) [Test Compound J, 7-[α-(3-methylcarbamoyl-1-ureido)-α-phenylacetamido)-3-(1-methyl-1H-tetrazole-5-ylthiomethyl)-3-cephem-4-carboxylic acid]	2 (≈ 3.56 µM)	5 (≈ 8.9 µM)	3 (≈ 5.34 µM)	10 (≈ 17.8 µM)	4 (≈ 7.12 µM)	22.3 (≈ 39.7 µM)	4.3 (≈ 7.66 µM)	4.3 (≈ 7.66 µM)	130 (≈ 231 µM)	7.5 (≈ 13.4 µM)	> 20	0.7	72	
CNC(=O)N(C)C(=O)NC(C(=O)NC1C(=O)N2C(C(=O)O)=C(CSc3nnnn3C)CSC12)c1ccc(O)cc1 (stereo not drawn) [Test Compound A, 7-[α-(3-methylcarbamoyl-3-methyl-1-ureido)-α-(4-hydroxyphenyl)acetamido]-3-(1-methyl-1H-tetrazole-5-ylthiomethyl)-3-cephem-4-carboxylic acid]	4 (≈ 6.76 µM)	0.6 (≈ 1.01 µM)	4.8 (≈ 8.11 µM)	3.5 (≈ 5.92 µM)	1 (≈ 1.69 µM)	18 (≈ 30.4 µM)	1 (≈ 1.69 µM)	1 (≈ 1.69 µM)	8 (≈ 13.5 µM)	1 (≈ 1.69 µM)	> 20	0.7	72	2 (≈ 3.38 µM)
CNC(=O)NC(=O)NC(C(=O)NC1C(=O)N2C(C(=O)O)=C(CSc3nnc(C)s3)CSC12)c1ccc(O)cc1 (stereo not drawn) [Test Compound L, Sodium 7-[α-(3-methylcarbamoyl-1-ureido)-α-(4-hydroxyphenyl)acetamido]-3-(5-methyl-1,3,4-thiadiazole-2-ylthiomethyl)3-cephem-4-carboxylate]	6.5	0.6	7.5	16	5.5	19.5	6.5	15.5	> 200	7.5	> 20			
